# Like-named read-outs stand apart in the source and are kept apart here.
# Assays:
# L1210 Leukämiezellen = test: Colony formation of L1210 leukaemia cells in soft agar (cytotoxicity in vitro); assay type: cell-based, Maus; conditions: Mus musculus
# From the text: Die zytostatische Wirksamkeit der erfindungsgemäßen Verbindungen wurde anhand von L1210 Leukämiezellen der Maus getestet. Hierzu wurde die Koloniebildung von L1210 Leukämiezellen in Agarplatten herangezogen. Diese Methode dient zum Nachweis des Einflusses der Testsubstanzen auf das Wachstumsverhalten der Zellen über 1 Stunde oder über mehrere Generationen. Bei einer Zellzykluszeit von 10-12 Stunden werden dabei in der Testzeit von 7 Tagen etwa 14 aufeinanderfolgende Generationen beobachtet. Die erfindungsgemäßen zytostatisch wirksamen Substanzen bewirken in diesem Test eine Reduktion der zu beobachtenden Koloniezahl gegenüber einer unbehandelten Kontrollprobe.
# Verfahrensweise zur Ermittlung der Koloniebildung von L1210 Leukämiezellen in Soft-Agar
# 500 Leukämiezellen pro Platte wurden mit unterschiedlichen Konzentrationen der Testsubstanz 1 Stunde bei 37°C inkubiert. Anschließend wurden die Zellen zweimal mit McCoy5A-Medium gewaschen und schließlich in Petrischalen nach Zugabe von 0,3 % Agar ausgegossen. Kontrollen wurden lediglich mit frischem Medium inkubiert. Anstelle der einstündigen Inkubation wurden in manchen Fällen unterschiedliche Konzentrationen und Testsubstanzen der oberen Agarschicht zugemischt, um so eine kontinuierliche Exposition der Zellen über die gesamte Inkubationszeit zu erreichen. Nach Erstarren des Agars wurden die Platten im Brutschrank 7 Tage bei 37°C inkubiert (5 Vol.-% CO₂, 95 % relative Luftfeuchtigkeit). Anschließend wurde die Zahl der entstandenen Kolonien mit einem Durchmesser von mehr als 60 µm gezählt. Die Ergebnisse wurden angegeben als Koloniezahl in behandelten Agarplatten in Prozent der unbehandelten Kontrolle. Aus der so erhalte nen Dosiswirkungskurve wurde die IC₅₀ als Maß für die Wirksamkeit der Substanz ermittelt. Die Ergebnisse für die hier beschriebenen Verbindungen im Vergleich zu Adriamycin sind in Tabelle 1 zusammengefaßt.
# [1] = Stability under weakly acidic conditions (qualitative statement); assay type: physicochemical; conditions: unter schwach sauren Bedingungen
# [2] = L1210, 168 h, continuous exposure over the whole incubation time (7 days, 37°C), substance mixed into upper agar layer, colony count vs untreated control, read-out: Dauerinku-bation IC50
# [3] = L1210, 1 h incubation at 37°C, cells washed, then 7 days in agar, colony count vs untreated control, read-out: 1 h-Inku-bation IC50
Structure (SMILES),IC50 (L1210 Leukämiezellen; [2]),IC50 (L1210 Leukämiezellen; [3]),Stabilität [1],"IC50 (L1210 Leukämiezellen; L1210, 168 h, read-out: Dauerinku-bation IC50)","IC50 (L1210 Leukämiezellen; L1210, read-out: 1 h-Inku-bation IC50)"
"CC[C@@]1(O)C[C@H](O[C@H]2C[C@H](N(C)CCN(C)CCNC)[C@H](O)[C@H](C)O2)c2c(O)c3c(c(O)c2[C@H]1O)C(=O)c1cccc(O)c1C3=O [Verbindung 3, 7-0-(3′-N-(N,N′-Dimethyl-ethylendiaminoethyl)-3′-N-methyl-α-L-daunosaminyl)-β-rhodomycinon]",0.1 µg/mL,0.6 µg/mL,,,
"CC[C@@]1(O)C[C@H](O[C@H]2C[C@H](N(C)CCN(C)C)[C@H](O)[C@H](C)O2)c2c(O)c3c(c(O)c2[C@H]1O)C(=O)c1cccc(O)c1C3=O [Verbindung 2, 7-0-(3′-N-Dimethylaminoethyl-3′-N-methyl-α-L-,daunosaminyl)-β-rhodomycinon]",0.033 µg/mL,0.12 µg/mL,,,
"CC[C@@]1(O)C[C@H](O[C@H]2C[C@H](N(C)CCNCCc3c[nH]cn3)[C@H](O)[C@H](C)O2)c2c(O)c3c(c(O)c2[C@H]1O)C(=O)c1cccc(O)c1C3=O [Verbindung 4, 7-0-(3′-N-Histaminoethyl-3′-N-methyl-α-L-daunosaminyl)-β-rhodomycinon]",0.4 µg/mL,1.2 µg/mL,,,
"CC[C@@]1(O)C[C@H](O[C@H]2C[C@H](N(C)CCCl)[C@H](O)[C@H](C)O2)c2c(O)c3c(c(O)c2[C@H]1O)C(=O)c1cccc(O)c1C3=O [Verbindung 1, 7-0-(3′-N-Chlorethyl-3′-N-methyl-α-L-daunosaminyl)-β-rhodomycinon]",,,relativ stabil,0.03 µg/mL,0.11 µg/mL

# From patent EP0394983A2, “Anthracycline derivatives with cytostatic activity” (priority 1989, dated 1990)
